“And” between values parts separate entries of the source, which are not always exact repeats. Identical values can stand only once. Like-named read-outs stand apart in the source and are kept apart here.
What was measured:
Type in all cases: in vivo, mice
NCI-H460 tumors = settings: for % Inhibition: PM00104 0.9 mg/kg/day, single agents and combination, r5-r13 = day 9,13,16,21,24,27,30,38,41
Experimental: Female athymic nude mice (Harlan Sprague Dawley, Madison, Wis.) were utilized for all experiments. Animals were housed in ventilated rack caging with food and water ad libitum. The mice were acclimated for at least 5 days prior to tumor implantation.
The tumor model used in this study was NCI-H460 cell line which is a human NSCLC cell line obtained from the ATCC (Manassas, Va.). […] Cells from in vitro passage 7 were implanted SC into study mice using a 1 ml syringe with a 13G trocar: 5×10^6 cells/mouse in 0.2 ml 50% Matrigel/50% RPMI medium of NCI-H460 without serum or antibiotics. Bacterial culture was taken on cells used to implant the study.
Treatments were initiated on DPI 9.
Tumor size measurements were recorded 2-3 times/week from the treatment initiation until the termination of the study.
(§1) Mean, standard deviation and standard error of the mean were determined for tumor volume for all animal groups at all assessments. Student's t test was performed on tumor volumes at each measurement day, including at the end of the study, to determine whether there were any statistically significant differences between combination treatment groups and single monotherapy treatment groups.

PLC/PRF/5 tumors = tested on: PLC/PRF/5 tumors
Experimental: (§2) Female athymic nude mice (Harlan Sprague Dawley, Madison, Wis.) were utilized for all experiments. Animals were housed in ventilated rack caging with food and water ad libitum. The mice were acclimated for at least 5 days prior to tumor implantation with a tumor cell suspension.
The tumor model used in these studies was PLC/PRF/5 cell line, which was obtained from the ATCC (Manassas, Va.).
PLC/PRF/5 were grown in Eagle's minimum essential medium supplemented with 10% FBS and 1% L-glutamine. Each animal was implanted SC on the right flank, using a 13G trochar and 1 mL syringe, with 5×10^6 PLC/PRF/5 cells in a 0.2 mL suspension of 50% Matrigel and 50% serum free MEM medium, without antibiotics. Bacterial cultures were performed on aliquots of the cells prepared for implantation.
(§3) Treatments were initiated on DPI 14.
(§4) Tumor size measurements were recorded twice weekly from the treatment initiation until the termination of the study.
as §1

HepG2 tumors = tested on: HepG2 tumors
Experimental: as §2
The tumor model used in these studies was HepG2 cell line, which was obtained from the ATCC (Manassas, Va.).
HepG2 cells were grown in MEM supplemented with 10% FBS, 1.5 g/L sodium bicarbonate, 0.1 mM non-essential amino acids, 1.0 mM sodium pyruvate, and 2 mM L-glutamine. Each animal was implanted SC on the right flank, using a 13G trochar, with 5×10^6 HepG2 cells in a 0.2 mL suspension of 50% Matrigel and 50% serum free medium, without antibiotics. Bacterial cultures were performed on aliquots of the cells prepared for implantation.
Treatments were initiated on DPI 19.
as §4, §1

Hs746T tumors = tested on: Hs746T tumors
Experimental: as §2
The tumor model used in these studies was Hs746T cell line, which was obtained from the ATCC (Manassas, Va.).
as §3, §4, §1

[1] = PM00104 0.9 mg/kg/day IV and/or Bevacizumab 5 mg/kg/day IP
[2] = day 14, PM00104 0.90, sorafenib 60 mg/kg/day
[3] = day 18, PM00104 0.90, sorafenib 60 mg/kg/day
[4] = day 22, PM00104 0.90, sorafenib 60 mg/kg/day
[5] = day 25, PM00104 0.90, sorafenib 60 mg/kg/day
[6] = day 28, PM00104 0.90, sorafenib 60 mg/kg/day
[7] = day 32, PM00104 0.90, sorafenib 60 mg/kg/day
[8] = day 35, PM00104 0.90, sorafenib 60 mg/kg/day
[9] = day 39, PM00104 0.90, sorafenib 60 mg/kg/day
[10] = day 42, PM00104 0.90, sorafenib 60 mg/kg/day
[11] = day 19, PM00104 0.60, sorafenib 60 mg/kg/day
[12] = day 19, PM00104 0.90, sorafenib 60 mg/kg/day
[13] = day 22, PM00104 0.60, sorafenib 60 mg/kg/day
[14] = day 26, PM00104 0.60, sorafenib 60 mg/kg/day
[15] = day 26, PM00104 0.90, sorafenib 60 mg/kg/day
[16] = day 30, PM00104 0.60, sorafenib 60 mg/kg/day
[17] = day 30, PM00104 0.90, sorafenib 60 mg/kg/day
[18] = day 33, PM00104 0.60, sorafenib 60 mg/kg/day
[19] = day 33, PM00104 0.90, sorafenib 60 mg/kg/day
[20] = PM00104 0.90 IV, docetaxel 16 IP, oxaliplatin 8 IP mg/kg/day (G2, G3, G5, G7, G9), DPI 14, 21, 28

## COc1c(C)cc2c(c1O)[C@@H]1[C@@H]3Cc4c(OC(C)=O)c(C)c5c(c4[C@H](CNC(=O)/C=C/c4cccc(C(F)(F)F)c4)N3[C@@H](O)[C@H](C2)N1C)OCO5 [PM00104]
NCI-H460 tumors; [1]
  % T/C on day 9: 96.3%
  % T/C on day 13: 97.8%
  % T/C on day 16: 75.9%
  % T/C on day 21: 73.2%
  % T/C on day 24: 66.8%
  % T/C on day 27: 43.8%
  % T/C on day 30: 45.1%
  % T/C on day 38: 125.1%
  % T/C on day 41: 132.5%
NCI-H460 tumors; bevacizumab 5 mg/kg/day
  % Inhibition: 24.1% and 33.2%
NCI-H460 tumors; temsirolimus 10 mg/kg/day
  % Inhibition: 24.1% and 33.2%
NCI-H460 tumors; temsirolimus 20 mg/kg/day
  % Inhibition: 24.1% and 33.2%
PLC/PRF/5 tumors; day 14, PM00104 0.45, sorafenib 60 mg/kg/day
  % T/C: 106.5%
PLC/PRF/5 tumors; [2]
  % Inhibition: −0.8%
  % T/C: 100.8%
PLC/PRF/5 tumors; day 18, PM00104 0.45, sorafenib 60 mg/kg/day
  % T/C: 71.1%
PLC/PRF/5 tumors; [3]
  % Inhibition: 21.2%
  % T/C: 78.8%
PLC/PRF/5 tumors; day 22, PM00104 0.45, sorafenib 60 mg/kg/day
  % T/C: 73.5%
PLC/PRF/5 tumors; [4]
  % Inhibition: 33.3%
  % T/C: 66.7%
PLC/PRF/5 tumors; day 25, PM00104 0.45, sorafenib 60 mg/kg/day
  % T/C: 80.4%
PLC/PRF/5 tumors; [5]
  % Inhibition: 29.0%
  % T/C: 71.0%
PLC/PRF/5 tumors; day 28, PM00104 0.45, sorafenib 60 mg/kg/day
  % T/C: 67.3%
PLC/PRF/5 tumors; [6]
  % Inhibition: 47.1%
  % T/C: 52.9%
PLC/PRF/5 tumors; day 32, PM00104 0.45, sorafenib 60 mg/kg/day
  % T/C: 79.7%
PLC/PRF/5 tumors; [7]
  % Inhibition: 54.4%
  % T/C: 45.6%
PLC/PRF/5 tumors; day 35, PM00104 0.45, sorafenib 60 mg/kg/day
  % T/C: 71.7%
PLC/PRF/5 tumors; [8]
  % Inhibition: 45.1%
  % T/C: 54.9%
PLC/PRF/5 tumors; day 39, PM00104 0.45, sorafenib 60 mg/kg/day
  % T/C: 89.2%
PLC/PRF/5 tumors; [9]
  % Inhibition: 22.9%
  % T/C: 77.1%
PLC/PRF/5 tumors; day 42, PM00104 0.45, sorafenib 60 mg/kg/day
  % T/C: 85.7%
PLC/PRF/5 tumors; [10]
  % Inhibition: 29.9%
  % T/C: 70.1%
HepG2 tumors; day 19, PM00104 0.60, sorafenib 30 mg/kg/day
  % Inhibition: 8.4%
HepG2 tumors; [11]
  % Inhibition: 8.4%
  % T/C: 91.6%
HepG2 tumors; day 19, PM00104 0.90, sorafenib 30 mg/kg/day
  % Inhibition: 8.5%
HepG2 tumors; [12]
  % Inhibition: 8.5%
  % T/C: 91.5%
HepG2 tumors; day 22, PM00104 0.60, sorafenib 30 mg/kg/day
  % Inhibition: 28.1%
HepG2 tumors; [13]
  % Inhibition: 28.1%
  % T/C: 71.9%
HepG2 tumors; day 22, PM00104 0.90, sorafenib 30 mg/kg/day
  % Inhibition: 40.3%
HepG2 tumors; [4]
  % Inhibition: 40.3%
  % T/C: 59.7%
HepG2 tumors; day 26, PM00104 0.60, sorafenib 30 mg/kg/day
  % Inhibition: 48.3%
HepG2 tumors; [14]
  % Inhibition: 48.3%
  % T/C: 51.7%
HepG2 tumors; day 26, PM00104 0.90, sorafenib 30 mg/kg/day
  % Inhibition: 59.5%
HepG2 tumors; [15]
  % Inhibition: 59.5%
  % T/C: 40.5%
HepG2 tumors; day 30, PM00104 0.60, sorafenib 30 mg/kg/day
  % Inhibition: 59.2%
HepG2 tumors; [16]
  % Inhibition: 59.2%
  % T/C: 40.8%
HepG2 tumors; day 30, PM00104 0.90, sorafenib 30 mg/kg/day
  % Inhibition: 76.1%
HepG2 tumors; [17]
  % Inhibition: 76.1%
  % T/C: 23.9%
HepG2 tumors; day 33, PM00104 0.60, sorafenib 30 mg/kg/day
  % Inhibition: 62.4%
HepG2 tumors; [18]
  % Inhibition: 62.4%
  % T/C: 37.6%
HepG2 tumors; day 33, PM00104 0.90, sorafenib 30 mg/kg/day
  % Inhibition: 73.0%
HepG2 tumors; [19]
  % Inhibition: 73.0%
  % T/C: 27.0%
Hs746T tumors; [20]
  % T/C on day 14: 99.9%
  % T/C on day 19: 54.9%
  % T/C on day 22: 40.8%
  % T/C on day 26: 39.5%
  % T/C on day 29: 30.4%
  % T/C on day 32: 47.6%
  % T/C on day 39: 80.3%
Hs746T tumors; day 14, PM00104 0.9 and docetaxel 8 mg/kg/day
  % Inhibition: 0.1%
Hs746T tumors; day 14, PM00104 0.9 and docetaxel 16 mg/kg/day
  % Inhibition: 0.1%
Hs746T tumors; day 14, PM00104 0.9 and oxaliplatin 4 mg/kg/day
  % Inhibition: 0.1%
Hs746T tumors; day 14, PM00104 0.9 and oxaliplatin 8 mg/kg/day
  % Inhibition: 0.1%
Hs746T tumors; day 19, PM00104 0.9 and docetaxel 8 mg/kg/day
  % Inhibition: 45.1%
Hs746T tumors; day 19, PM00104 0.9 and docetaxel 16 mg/kg/day
  % Inhibition: 45.1%
Hs746T tumors; day 19, PM00104 0.9 and oxaliplatin 4 mg/kg/day
  % Inhibition: 45.1%
Hs746T tumors; day 19, PM00104 0.9 and oxaliplatin 8 mg/kg/day
  % Inhibition: 45.1%
Hs746T tumors; day 22, PM00104 0.9 and docetaxel 8 mg/kg/day
  % Inhibition: 59.2%
Hs746T tumors; day 22, PM00104 0.9 and docetaxel 16 mg/kg/day
  % Inhibition: 59.2%
Hs746T tumors; day 22, PM00104 0.9 and oxaliplatin 4 mg/kg/day
  % Inhibition: 59.2%
Hs746T tumors; day 22, PM00104 0.9 and oxaliplatin 8 mg/kg/day
  % Inhibition: 59.2%
Hs746T tumors; day 26, PM00104 0.9 and docetaxel 8 mg/kg/day
  % Inhibition: 60.5%
Hs746T tumors; day 26, PM00104 0.9 and docetaxel 16 mg/kg/day
  % Inhibition: 60.5%
Hs746T tumors; day 26, PM00104 0.9 and oxaliplatin 4 mg/kg/day
  % Inhibition: 60.5%
Hs746T tumors; day 26, PM00104 0.9 and oxaliplatin 8 mg/kg/day
  % Inhibition: 60.5%
Hs746T tumors; day 29, PM00104 0.9 and docetaxel 8 mg/kg/day
  % Inhibition: 69.6%
Hs746T tumors; day 29, PM00104 0.9 and docetaxel 16 mg/kg/day
  % Inhibition: 69.6%
Hs746T tumors; day 29, PM00104 0.9 and oxaliplatin 4 mg/kg/day
  % Inhibition: 69.6%
Hs746T tumors; day 29, PM00104 0.9 and oxaliplatin 8 mg/kg/day
  % Inhibition: 69.6%
Hs746T tumors; day 32, PM00104 0.9 and docetaxel 8 mg/kg/day
  % Inhibition: 52.4%
Hs746T tumors; day 32, PM00104 0.9 and docetaxel 16 mg/kg/day
  % Inhibition: 52.4%
Hs746T tumors; day 32, PM00104 0.9 and oxaliplatin 4 mg/kg/day
  % Inhibition: 52.4%
Hs746T tumors; day 32, PM00104 0.9 and oxaliplatin 8 mg/kg/day
  % Inhibition: 52.4%
Hs746T tumors; day 39, PM00104 0.9 and docetaxel 8 mg/kg/day
  % Inhibition: 19.7%
Hs746T tumors; day 39, PM00104 0.9 and docetaxel 16 mg/kg/day
  % Inhibition: 19.7%
Hs746T tumors; day 39, PM00104 0.9 and oxaliplatin 4 mg/kg/day
  % Inhibition: 19.7%
Hs746T tumors; day 39, PM00104 0.9 and oxaliplatin 8 mg/kg/day
  % Inhibition: 19.7%

From patent publication US20110070232A1, “Combination Therapy with an Antitumor Alkaloid” (Pharma Mar, S.A., priority 2008, published 2011)
